Test results published in US9944597B2, “Polysubstituted pyrroles having microtubule-disrupting, cytotoxic and antitumor activities and methods of use thereof” (THE BOARD OF REGENTS OF THE UNIVERSITY OF TEXAS SYSTEM, priority 2013, dated 2018).
Entries after “also recorded” stand apart in the source; their conditions may differ. Read-outs that look alike come from different tables or passages of the source.

What was measured:
[1] = target: T1, purified porcine brain tubulin (Sus scrofa, UniProt P02554); assay: Inhibition of polymerization of purified tubulin (absorbance at 340 nm); type: biochemical
T1 construct: of Purified Porcine Brain Tubulin; from tissue; host or cells: porcine brain
T1 sequence (P02554 whole entry): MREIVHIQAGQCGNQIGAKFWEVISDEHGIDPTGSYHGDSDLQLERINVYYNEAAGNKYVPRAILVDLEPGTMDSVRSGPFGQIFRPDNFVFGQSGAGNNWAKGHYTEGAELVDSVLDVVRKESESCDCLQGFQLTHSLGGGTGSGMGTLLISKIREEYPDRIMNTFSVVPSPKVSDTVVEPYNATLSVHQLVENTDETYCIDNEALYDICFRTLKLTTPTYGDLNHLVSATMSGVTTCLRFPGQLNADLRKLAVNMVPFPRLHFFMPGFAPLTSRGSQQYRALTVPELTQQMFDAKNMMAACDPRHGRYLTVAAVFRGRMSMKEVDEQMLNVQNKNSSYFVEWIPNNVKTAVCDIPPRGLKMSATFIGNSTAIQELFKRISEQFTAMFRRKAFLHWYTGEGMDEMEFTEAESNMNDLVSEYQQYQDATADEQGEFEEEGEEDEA
T1 sequence (P02550 whole entry partner): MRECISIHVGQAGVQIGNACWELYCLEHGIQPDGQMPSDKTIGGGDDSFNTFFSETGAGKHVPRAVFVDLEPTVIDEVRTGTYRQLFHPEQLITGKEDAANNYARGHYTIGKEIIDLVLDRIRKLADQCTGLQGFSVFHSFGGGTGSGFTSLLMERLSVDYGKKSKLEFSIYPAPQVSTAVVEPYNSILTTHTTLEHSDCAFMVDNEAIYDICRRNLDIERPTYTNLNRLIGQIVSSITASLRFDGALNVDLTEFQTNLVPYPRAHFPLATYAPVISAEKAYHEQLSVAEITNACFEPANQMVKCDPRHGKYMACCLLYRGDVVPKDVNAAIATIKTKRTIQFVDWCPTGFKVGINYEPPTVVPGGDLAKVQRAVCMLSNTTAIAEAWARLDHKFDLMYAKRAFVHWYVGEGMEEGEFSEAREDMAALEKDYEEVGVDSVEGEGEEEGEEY

[2] = system: A-10 cells; assay: Cellular microtubule loss by indirect immunofluorescence; type: cell-based, rat; details: Rattus norvegicus, A10; Table 53; own compounds; read-out: Microtubule Depolymerization EC50
Summary of the method: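 Rat embryonic vascular smooth muscle cells were treated across a range of compound concentrations. Microtubules were stained by indirect β-tubulin immunofluorescence, with DAPI for DNA. EC50 is the concentration giving about 50% interphase microtubule loss, scored visually, from curves over at least three experiments.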

[3] = system: HeLa cells; assay: Mitotic spindles by indirect immunofluorescence; type: cell-based, human; details: 18 h, 15 nM or 25 nM
Experimental: The effects of NT-7-16 on mitotic spindles were evaluated in HeLa cells by indirect immunofluorescence. HeLa cells were treated for 18 h with (A) vehicle (DMSO), (B) 15 nM NT-7-16 or (C) 25 nM NT-7-16. […] These effects are consistent with the actions of other microtubule disrupting agents. The presence of lagging chromosomes is indicated by the arrows and is caused by disruption of normal microtubule dynamics.

[4] = system: MDA-MB-435 xenograft; assay: MDA-MB-435 xenograft murine model; type: in vivo
Experimental: The antitumor activity of NT-7-45 was evaluated in the MDA-MB-435 xenograft murine model of cancer. MDA-MB-435 cells were implanted subcutaneously into both flanks of nude mice. Mice were treated periodically with six injections of NT-7-45 i.p. at 75 mg/kg, suspended in a mixture of Tween80, DMSO and PBS.
The antitumor activity of NT-7-16 was evaluated in the MDA-MB-435 xenograft murine model of cancer. MDA-MB-435 cells were implanted subcutaneously into both flanks of nude mice. Mice were treated on days 1, 4, 7, 11, 14, 18, 20 and 22 by injecting NT-7-16 i.p. at 50 mg/kg suspended in a mixture of Tween80, DMSO and PBS. […] As shown in FIG. 5-7, NT-7-16 inhibited tumor growth as compared to vehicle-treated controls in a statistically significant (p<0.05) manner at days 11, 13, 15, 18 and 22.

[5] = system: HeLa cells; assay: Cell cycle distribution by flow cytometry; type: cell-based, human; details: HeLa cells treated for 18 hr; FIG. 3: 25 nM NT-7-16, 12.5 nM paclitaxel
Experimental: The effects of NT-7-16 on cell cycle distribution were determined. […] The cells were stained with Kirshan's reagent (Kirshan, Cell Biol. 66, 188-93 (1975)), and cell cycle distribution was measured using a Millipore Muse flow cytometer.
The effects of NT-7-16 on cell cycle distribution were determined. […] The cells were stained with Kirshan's reagent (Kirshan Cell Biol. 66, 188-93. (1975)), and cell cycle distribution was measured using a Millipore Muse flow cytometer.

[6] = system: MDA-MB-435 (human melanoma cancer cells); assay: Antiproliferative SRB assay, MDA-MB-435; type: cell-based; details: Homo sapiens, MDA-MB-435; Table 53; own compounds; read-out: MDA-MB-435 Antiproliferative IC50
Summary of the method: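 After 24 h attachment, MDA-MB-435 cells were exposed to compounds for 48 h, then fixed with trichloroacetic acid. Cellular protein was quantified by sulforhodamine B staining. IC50 for proliferation inhibition was taken from the linear portion of log concentration–response curves.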

[7] = target: colchicine binding site on tubulin (Sus scrofa, UniProt P02554); assay: Colchicine site binding, fluorometric assay
Sequence of colchicine binding site on tubulin (P02554 whole entry): as the sequence (P02554 whole entry) above
Sequence of colchicine binding site on tubulin (P02550 whole entry partner): as the sequence (P02550 whole entry partner) above

[8] = system: PC-3 xenograft; details: i.p. dosing at relatively high doses, after 14 days of treatment; cited from earlier work
[9] = system: A-10 cells; details: Table 53; literature data from Da et al. 2013; read-out: Microtubule Depolymerization EC50; cited from earlier work
[10] = system: variety of cancer cell lines; details: average over a variety of cancer cell lines; read-out: antiproliferative activity, average IC50; cited from earlier work
[11] = system: MDA-MB-435 (human melanoma cancer cells); details: Table 53; literature data from Da et al. 2013; read-out: MDA-MB-435 Antiproliferative IC50; cited from earlier work
[12] = target: P-glycoprotein (Homo sapiens, UniProt P08183); details: cited from earlier work
Sequence of P-glycoprotein (P08183 whole entry): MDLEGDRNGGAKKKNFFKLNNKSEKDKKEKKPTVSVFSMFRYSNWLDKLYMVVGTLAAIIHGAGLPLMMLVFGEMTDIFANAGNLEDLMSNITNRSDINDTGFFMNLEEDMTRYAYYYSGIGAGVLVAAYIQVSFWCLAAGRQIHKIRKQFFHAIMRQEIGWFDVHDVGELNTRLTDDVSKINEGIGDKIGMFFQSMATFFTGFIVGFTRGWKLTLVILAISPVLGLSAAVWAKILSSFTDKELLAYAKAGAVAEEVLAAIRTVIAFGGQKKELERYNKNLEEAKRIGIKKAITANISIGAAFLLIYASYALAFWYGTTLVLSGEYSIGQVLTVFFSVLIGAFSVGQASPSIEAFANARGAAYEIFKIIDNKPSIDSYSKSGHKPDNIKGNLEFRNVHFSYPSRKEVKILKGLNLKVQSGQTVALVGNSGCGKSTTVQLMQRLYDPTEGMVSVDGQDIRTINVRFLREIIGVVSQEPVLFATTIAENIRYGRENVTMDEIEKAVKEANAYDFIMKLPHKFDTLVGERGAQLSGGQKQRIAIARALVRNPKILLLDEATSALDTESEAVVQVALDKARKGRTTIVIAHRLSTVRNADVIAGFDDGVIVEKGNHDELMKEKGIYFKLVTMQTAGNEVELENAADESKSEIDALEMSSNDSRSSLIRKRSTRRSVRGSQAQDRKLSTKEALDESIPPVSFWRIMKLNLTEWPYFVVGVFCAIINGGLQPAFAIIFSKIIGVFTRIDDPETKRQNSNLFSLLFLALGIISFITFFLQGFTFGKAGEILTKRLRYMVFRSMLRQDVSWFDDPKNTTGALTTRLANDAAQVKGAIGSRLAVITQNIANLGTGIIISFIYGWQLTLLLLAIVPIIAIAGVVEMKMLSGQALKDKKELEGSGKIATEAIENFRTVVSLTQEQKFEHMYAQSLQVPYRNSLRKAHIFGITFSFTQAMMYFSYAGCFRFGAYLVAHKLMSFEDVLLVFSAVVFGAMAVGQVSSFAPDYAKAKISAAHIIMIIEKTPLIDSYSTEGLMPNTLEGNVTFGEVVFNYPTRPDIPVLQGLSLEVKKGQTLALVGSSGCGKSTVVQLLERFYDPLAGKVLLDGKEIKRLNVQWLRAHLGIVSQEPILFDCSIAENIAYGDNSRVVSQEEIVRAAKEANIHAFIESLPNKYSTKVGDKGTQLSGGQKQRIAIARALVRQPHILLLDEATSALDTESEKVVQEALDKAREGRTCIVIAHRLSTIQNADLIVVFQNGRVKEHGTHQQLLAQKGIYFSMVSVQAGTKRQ

Row | SMILES | inhibition of tubulin assembly ([1]; at concentrations of 2-5 μM) | effect on tubulin polymerization (turbidity, FIG. 2, FIG. 10) ([1]; result in words) | EC50 [2] [nM] | effects on mitotic spindles [3] | tumor growth in MDA-MB-435 xenograft ([4]; 50 mg/kg i.p. on days 1, 4, 7, 11, 14, 18, 20, 22, 25-day model) | toxicity in xenograft study ([4]; 50 mg/kg i.p., eight cumulative doses) | animal body weight ([4]; 50 mg/kg i.p., over 25 days) | cell cycle distribution [5] | IC50 [6] [nM] | inhibition at 10 µM ([7]; read-out: inhibition of colchicine binding to tubulin) [%] | effect on colchicine binding (FIG. 9) ([7]; result in words) | reduction in tumor burden [8] | EC50 [9] [nM] | IC50 [10] [nM] | IC50 [11] [nM] | substrate for transport by P-glycoprotein [12]
1 | CCOC(=O)c1[nH]c(Br)c(-c2ccc(OC)c(OC)c2OC)c1Br [NT-7-16, 3,5-Dibromo-4-(2,3,4-trimethoxyphenyl)-1H-pyrrole-2-carboxylic acid ethyl ester] | almost total inhibition | concentration-dependent inhibition of tubulin assembly; also recorded: inhibits tubulin polymerization | 345 | aberrant mitotic spindles | significant antitumor effects; also recorded: prevented tumor growth; also recorded: statistically significant (p<0.05) inhibition of tumor growth | no evidence of toxicity; also recorded: no overt toxicity | no significant change in animal body weight; also recorded: no significant weight loss | initiated mitotic accumulation; also recorded: G2/M arrest | 14 ± 5 | ~80 | concentration dependent inhibition of colchicine binding |  |  |  |  | 
2 | CCOC(=O)c1[nH]c(Br)c(-c2ccc(OC)c(OC)c2)c1Br [JG-03-14, 4-[(3,4-dimethoxy)-phenyl]-3,5-dibromopyrrole 2-carboxylic acid ethyl ester] |  |  |  |  |  |  |  |  |  |  |  | greater than 50% | 490 | 62 | 36 ± 2 | poor substrate
